# Measurements as given in patent publication US6797255B1, “Methods and compositions for enhancing magnetic resonance imaging” (Mallinckrodt Inc., priority 1985, dated 2004).
# System: rabbits
# Assay: Tissue proton T1 and T2 relaxation times 15 min after intravenous administration (dose-response)
# Format: in vivo
# Details: for T1 relaxation time / T2 relaxation time: 10 mHz RADX; for effect on hepatic and biliary T1 relaxation times: intravenous administration
# Experimental: All experiments employing the complex dihydrogen bis(N-[N′-(2,6-dimethylphenyl)carbamoylmethyl]iminodiaceto)manganese (II) trihydrate were conducted following intravenous administration to rabbits. A 10 mM solution of the complex was used in these studies. Rabbits were anesthetized with ketamine/xylazine prior to treatment. The results given were obtained with a 10 mHz RADX proton spin analyzer.
# Dose-response experiments were conducted on rabbits following intravenous injection of 0.01-0.10 mmol of the complex/kg. […]
# [1] = 0.01-0.10 mmol/kg i.v., rabbits, 15 min
# [2] = Bladder, 15 min after 0.01 mmol/kg i.v., rabbits
# [3] = Bladder, 15 min after 0.03 mmol/kg i.v., rabbits
# [4] = Bladder, 15 min after 0.08 mmol/kg i.v., rabbits
# [5] = Bladder, 15 min after 0.10 mmol/kg i.v., 1 rabbit
# [6] = Blood, 5 min, 0.01 mmol/kg i.v., rabbits
# [7] = Blood, 5 min, 0.03 mmol/kg i.v., rabbits
# [8] = Blood, 5 min, 0.08 mmol/kg i.v., rabbits
# [9] = Blood, 5 min, 0.10 mmol/kg i.v., 1 rabbit
# [10] = Blood, 10 min, 0.01 mmol/kg i.v., rabbits
# [11] = Blood, 10 min, 0.03 mmol/kg i.v., rabbits
# [12] = Blood, 10 min, 0.08 mmol/kg i.v., rabbits
# [13] = Blood, 10 min, 0.10 mmol/kg i.v., 1 rabbit
# [14] = Blood, 15 min, 0.01 mmol/kg i.v., rabbits
# [15] = Blood, 15 min, 0.03 mmol/kg i.v., rabbits
# [16] = Blood, 15 min, 0.08 mmol/kg i.v., rabbits
# [17] = Fat, 15 min after 0.01 mmol/kg i.v., rabbits
# [18] = Fat, 15 min after 0.03 mmol/kg i.v., rabbits
# [19] = Fat, 15 min after 0.08 mmol/kg i.v., rabbits
# [20] = Fat, 15 min after 0.10 mmol/kg i.v., 1 rabbit
# [21] = Heart, 15 min after 0.01 mmol/kg i.v., rabbits
# [22] = Heart, 15 min after 0.03 mmol/kg i.v., rabbits
# [23] = Heart, 15 min after 0.08 mmol/kg i.v., rabbits
# [24] = Heart, 15 min after 0.10 mmol/kg i.v., 1 rabbit
# [25] = Large Intestine, 15 min after 0.01 mmol/kg i.v., rabbits
# [26] = Large Intestine, 15 min after 0.03 mmol/kg i.v., rabbits
# [27] = Large Intestine, 15 min after 0.08 mmol/kg i.v., rabbits
# [28] = Large Intestine, 15 min after 0.10 mmol/kg i.v., 1 rabbit
# [29] = Large Intestine, rabbits, 15 min
# [30] = Liver, 15 min after 0.01 mmol/kg i.v., rabbits
# [31] = Liver, 15 min after 0.03 mmol/kg i.v., rabbits
# [32] = Liver, 15 min after 0.08 mmol/kg i.v., rabbits
# [33] = Liver, 15 min after 0.10 mmol/kg i.v., 1 rabbit
# [34] = Lung, 15 min after 0.01 mmol/kg i.v., rabbits
# [35] = Lung, 15 min after 0.03 mmol/kg i.v., rabbits
# [36] = Lung, 15 min after 0.08 mmol/kg i.v., rabbits
# [37] = Lung, 15 min after 0.10 mmol/kg i.v., 1 rabbit
# [38] = Pancreas, 15 min after 0.01 mmol/kg i.v., rabbits
# [39] = Pancreas, 15 min after 0.03 mmol/kg i.v., rabbits
# [40] = Pancreas, 15 min after 0.08 mmol/kg i.v., rabbits
# [41] = Pancreas, 15 min after 0.10 mmol/kg i.v., 1 rabbit
# [42] = Renal Cortex, 15 min after 0.01 mmol/kg i.v., rabbits
# [43] = Renal Cortex, 15 min after 0.03 mmol/kg i.v., rabbits
# [44] = Renal Cortex, 15 min after 0.08 mmol/kg i.v., rabbits
# [45] = Renal Cortex, 15 min after 0.10 mmol/kg i.v., 1 rabbit
# [46] = Renal Medulla, 15 min after 0.01 mmol/kg i.v., rabbits
# [47] = Renal Medulla, 15 min after 0.03 mmol/kg i.v., rabbits
# [48] = Renal Medulla, 15 min after 0.08 mmol/kg i.v., rabbits
# [49] = Renal Medulla, 15 min after 0.10 mmol/kg i.v., 1 rabbit
# [50] = Skeletal Muscle, 15 min after 0.01 mmol/kg i.v., rabbits
# [51] = Skeletal Muscle, 15 min after 0.03 mmol/kg i.v., rabbits
# [52] = Skeletal Muscle, 15 min after 0.08 mmol/kg i.v., rabbits
# [53] = Skeletal Muscle, 15 min after 0.10 mmol/kg i.v., 1 rabbit
# [54] = Small Intestine, 15 min after 0.01 mmol/kg i.v., rabbits
# [55] = Small Intestine, 15 min after 0.03 mmol/kg i.v., rabbits
# [56] = Small Intestine, 15 min after 0.08 mmol/kg i.v., rabbits
# [57] = Small Intestine, 15 min after 0.10 mmol/kg i.v., 1 rabbit
# [58] = Small Intestine, rabbits, 15 min
# [59] = Spleen, 15 min after 0.01 mmol/kg i.v., rabbits
# [60] = Spleen, 15 min after 0.03 mmol/kg i.v., rabbits
# [61] = Spleen, 15 min after 0.08 mmol/kg i.v., rabbits
# [62] = Spleen, 15 min after 0.10 mmol/kg i.v., 1 rabbit
# [63] = Stomach, 15 min after 0.01 mmol/kg i.v., rabbits
# [64] = Stomach, 15 min after 0.03 mmol/kg i.v., rabbits
# [65] = Stomach, 15 min after 0.08 mmol/kg i.v., rabbits
# [66] = Stomach, 15 min after 0.10 mmol/kg i.v., 1 rabbit
structure (smiles),measurement,setting,value
Cc1cccc(C)c1NC(=O)CN(CC(=O)[O-])CC(=O)O.Cc1cccc(C)c1NC(=O)CN(CC(=O)[O-])CC(=O)O.O.O.O.[Mn+2] [Example 2],effect on tissue T1 relaxation times,[1],dose-related decrease
same,effect on tissue T2 relaxation times,[1],minimally affected
same,T1 relaxation time,[2],380 ms
same,T2 relaxation time,[2],84 ms
same,T1 relaxation time,[3],312 ms
same,T2 relaxation time,[3],68 ms
same,T1 relaxation time,[4],173 ms
same,T2 relaxation time,[4],60 ms
same,T1 relaxation time,[5],159 ms
same,T2 relaxation time,[5],61 ms
same,"Approximate ED50, intravenous dose to reduce tissue T1 by 50%","Bladder, rabbits, 15 min",0.060 mmol/kg
same,"Approximate ED50, intravenous dose to reduce tissue T2 by 50%","Bladder, rabbits, 15 min",0.51 mmol/kg
same,T1 relaxation time,[6],554 ms
same,T2 relaxation time,[6],161 ms
same,T1 relaxation time,[7],192 ms
same,T2 relaxation time,[7],110 ms
same,T1 relaxation time,[8],70 ms
same,T2 relaxation time,[8],56 ms
same,T1 relaxation time,[9],64 ms
same,T2 relaxation time,[9],55 ms
same,T1 relaxation time,[10],604 ms
same,T2 relaxation time,[10],165 ms
same,T1 relaxation time,[11],283 ms
same,T2 relaxation time,[11],119 ms
same,T1 relaxation time,[12],96 ms
same,T2 relaxation time,[12],72 ms
same,T1 relaxation time,[13],398 ms
same,T2 relaxation time,[13],179 ms
same,T1 relaxation time,[14],639 ms
same,T2 relaxation time,[14],171 ms
same,T1 relaxation time,[15],368 ms
same,T2 relaxation time,[15],141 ms
same,T1 relaxation time,[16],115 ms
same,T2 relaxation time,[16],82 ms
same,T1 relaxation time,[17],148 ms
same,T2 relaxation time,[17],129 ms
same,T1 relaxation time,[18],136 ms
same,T2 relaxation time,[18],122 ms
same,T1 relaxation time,[19],125 ms
same,T2 relaxation time,[19],122 ms
same,T1 relaxation time,[20],122 ms
same,T2 relaxation time,[20],89 ms
same,"Approximate ED50, intravenous dose to reduce tissue T1 by 50%","Fat, rabbits, 15 min",11.94 mmol/kg
same,T1 relaxation time,[21],370 ms
same,T2 relaxation time,[21],64 ms
same,T1 relaxation time,[22],222 ms
same,T2 relaxation time,[22],56 ms
same,T1 relaxation time,[23],104 ms
same,T2 relaxation time,[23],43 ms
same,T1 relaxation time,[24],84 ms
same,T2 relaxation time,[24],39 ms
same,"Approximate ED50, intravenous dose to reduce tissue T1 by 50%","Heart, rabbits, 15 min",0.037 mmol/kg
same,"Approximate ED50, intravenous dose to reduce tissue T2 by 50%","Heart, rabbits, 15 min",0.38 mmol/kg
same,T1 relaxation time,[25],245 ms
same,T2 relaxation time,[25],65 ms
same,T1 relaxation time,[26],155 ms
same,T2 relaxation time,[26],52 ms
same,T1 relaxation time,[27],123 ms
same,T2 relaxation time,[27],43 ms
same,T1 relaxation time,[28],166 ms
same,T2 relaxation time,[28],53 ms
same,"Approximate ED50, intravenous dose to reduce tissue T1 by 50%",[29],0.050 mmol/kg
same,"Approximate ED50, intravenous dose to reduce tissue T2 by 50%",[29],0.19 mmol/kg
same,T1 relaxation time,[30],92 ms
same,T2 relaxation time,[30],41 ms
same,T1 relaxation time,[31],49 ms
same,T2 relaxation time,[31],25 ms
same,T1 relaxation time,[32],28 ms
same,T2 relaxation time,[32],18 ms
same,T1 relaxation time,[33],143 ms
same,T2 relaxation time,[33],87 ms
same,"Approximate ED50, intravenous dose to reduce tissue T2 by 50%","Liver, rabbits, 15 min",0.04 mmol/kg
same,"Approximate ED50, intravenous dose to reduce tissue T1 by 50%","Liver, rabbits, 15 min, listed as Dihydrogen Bis(N-[N′-(2,6-dimethylphenyl)carbamoylmethyl]iminodiaceto)manganese(, Trihydrate)",0.0067 mmol/kg
same,"Approximate ED50, intravenous dose to reduce tissue T1 by 50%","Liver, rabbits, 15 min, listed as dihydrogen bis(N-[N′-(2,6-dimethylphenyl)carbamoylmethyl]-iminodiaceto)manganese, Trihydrate",less than 0.01 mmol/kg
same,T1 relaxation time,[34],464 ms
same,T2 relaxation time,[34],91 ms
same,T1 relaxation time,[35],352 ms
same,T2 relaxation time,[35],100 ms
same,T1 relaxation time,[36],222 ms
same,T2 relaxation time,[36],67 ms
same,T1 relaxation time,[37],144 ms
same,T2 relaxation time,[37],62 ms
same,"Approximate ED50, intravenous dose to reduce tissue T1 by 50%","Lung, rabbits, 15 min",0.075 mmol/kg
same,"Approximate ED50, intravenous dose to reduce tissue T2 by 50%","Lung, rabbits, 15 min",0.15 mmol/kg
same,T1 relaxation time,[38],225 ms
same,T2 relaxation time,[38],66 ms
same,T1 relaxation time,[39],104 ms
same,T2 relaxation time,[39],118 ms
same,T1 relaxation time,[40],101 ms
same,T2 relaxation time,[40],70 ms
same,T1 relaxation time,[41],149 ms
same,T2 relaxation time,[41],69 ms
same,"Approximate ED50, intravenous dose to reduce tissue T1 by 50%","Pancreas, rabbits, 15 min",0.064 mmol/kg
same,T1 relaxation time,[42],236 ms
same,T2 relaxation time,[42],77 ms
same,T1 relaxation time,[43],164 ms
same,T2 relaxation time,[43],63 ms
same,T1 relaxation time,[44],77 ms
same,T2 relaxation time,[44],42 ms
same,T1 relaxation time,[45],71 ms
same,T2 relaxation time,[45],37 ms
same,T1 relaxation time,[46],435 ms
same,T2 relaxation time,[46],122 ms
same,T1 relaxation time,[47],218 ms
same,T2 relaxation time,[47],95 ms
same,T1 relaxation time,[48],124 ms
same,T2 relaxation time,[48],74 ms
same,T1 relaxation time,[49],35 ms
same,T2 relaxation time,[49],21 ms
same,"Approximate ED50, intravenous dose to reduce tissue T1 by 50%","Renal cortex, rabbits, 15 min",0.041 mmol/kg
same,"Approximate ED50, intravenous dose to reduce tissue T2 by 50%","Renal cortex, rabbits, 15 min",0.14 mmol/kg
same,"Approximate ED50, intravenous dose to reduce tissue T1 by 50%","Renal medulla, rabbits, 15 min",0.030 mmol/kg
same,"Approximate ED50, intravenous dose to reduce tissue T2 by 50%","Renal medulla, rabbits, 15 min",0.90 mmol/kg
same,T1 relaxation time,[50],364 ms
same,T2 relaxation time,[50],35 ms
same,T1 relaxation time,[51],304 ms
same,T2 relaxation time,[51],38 ms
same,T1 relaxation time,[52],255 ms
same,T2 relaxation time,[52],39 ms
same,T1 relaxation time,[53],205 ms
same,T2 relaxation time,[53],38 ms
same,"Approximate ED50, intravenous dose to reduce tissue T1 by 50%","Skeletal muscle, rabbits, 15 min",0.35 mmol/kg
same,T1 relaxation time,[54],219 ms
same,T2 relaxation time,[54],73 ms
same,T1 relaxation time,[55],150 ms
same,T2 relaxation time,[55],60 ms
same,T1 relaxation time,[56],130 ms
same,T2 relaxation time,[56],50 ms
same,T1 relaxation time,[57],141 ms
same,T2 relaxation time,[57],45 ms
same,"Approximate ED50, intravenous dose to reduce tissue T1 by 50%",[58],0.051 mmol/kg
same,"Approximate ED50, intravenous dose to reduce tissue T2 by 50%",[58],0.27 mmol/kg
same,T1 relaxation time,[59],346 ms
same,T2 relaxation time,[59],73 ms
same,T1 relaxation time,[60],260 ms
same,T2 relaxation time,[60],70 ms
same,T1 relaxation time,[61],195 ms
same,T2 relaxation time,[61],65 ms
same,T1 relaxation time,[62],202 ms
same,T2 relaxation time,[62],71 ms
same,"Approximate ED50, intravenous dose to reduce tissue T1 by 50%","Spleen, rabbits, 15 min",0.085 mmol/kg
same,T1 relaxation time,[63],287 ms
same,T2 relaxation time,[63],56 ms
same,T1 relaxation time,[64],199 ms
same,T2 relaxation time,[64],53 ms
same,T1 relaxation time,[65],122 ms
same,T2 relaxation time,[65],43 ms
same,T1 relaxation time,[66],121 ms
same,T2 relaxation time,[66],47 ms
same,"Approximate ED50, intravenous dose to reduce tissue T1 by 50%","Stomach, rabbits, 15 min",0.068 mmol/kg
same,"Approximate ED50, intravenous dose to reduce tissue T2 by 50%","Stomach, rabbits, 15 min",0.93 mmol/kg
same,effect on hepatic and biliary T1 relaxation times,"listed as dihydrogen bis(N-[N′-(2,6-dimethylphenyl)carbamoylmethyl]-iminodiaceto)manganese, Trihydrate",dramatically reduced
same,effect on hepatic and biliary T1 relaxation times,"listed as dihydrogen bis(N-[N′-(2,6-dimethylphenyl)carbamoylmethyl]iminodiaceto)-manganese, Trihydrate",dramatically reduces hepatic and biliary T1 relaxation times
